Legend:
[1] = tested on: ACHN; assay: NCI-60 anticancer screening (SRB); format: cell-based; details: Homo sapiens, renal cancer, one dose 10 μM, read-out: Growth Inhibition Percentage (GI %)
[2] = tested on: OVCAR-5; assay: NCI-60 anticancer screening (SRB); format: cell-based; details: Homo sapiens; OVCAR-5, ovarian cancer; one dose 10 μM; read-out: Growth Inhibition Percentage (GI %)
[3] = tested on: EKVX; assay: NCI-60 anticancer screening (SRB); format: cell-based; details: Homo sapiens, NSC lung cancer, one dose 10 μM, read-out: Growth Inhibition Percentage (GI %)
[4] = tested on: K-562; assay: NCI-60 anticancer screening (SRB); format: cell-based; details: Homo sapiens, K562; K-562, leukemia; one dose 10 μM; read-out: Growth Inhibition Percentage (GI %)
[5] = tested on: HCT-116; assay: NCI-60 anticancer screening (SRB); format: cell-based; details: Homo sapiens; HCT-116, colon cancer; one dose 10 μM; read-out: Growth Inhibition Percentage (GI %)
[6] = biological target: EGFR^L858R (Homo sapiens, UniProt P00533, L858R); assay: biochemical
EGFR^L858R, sequence (P00533 25-1210 L858R): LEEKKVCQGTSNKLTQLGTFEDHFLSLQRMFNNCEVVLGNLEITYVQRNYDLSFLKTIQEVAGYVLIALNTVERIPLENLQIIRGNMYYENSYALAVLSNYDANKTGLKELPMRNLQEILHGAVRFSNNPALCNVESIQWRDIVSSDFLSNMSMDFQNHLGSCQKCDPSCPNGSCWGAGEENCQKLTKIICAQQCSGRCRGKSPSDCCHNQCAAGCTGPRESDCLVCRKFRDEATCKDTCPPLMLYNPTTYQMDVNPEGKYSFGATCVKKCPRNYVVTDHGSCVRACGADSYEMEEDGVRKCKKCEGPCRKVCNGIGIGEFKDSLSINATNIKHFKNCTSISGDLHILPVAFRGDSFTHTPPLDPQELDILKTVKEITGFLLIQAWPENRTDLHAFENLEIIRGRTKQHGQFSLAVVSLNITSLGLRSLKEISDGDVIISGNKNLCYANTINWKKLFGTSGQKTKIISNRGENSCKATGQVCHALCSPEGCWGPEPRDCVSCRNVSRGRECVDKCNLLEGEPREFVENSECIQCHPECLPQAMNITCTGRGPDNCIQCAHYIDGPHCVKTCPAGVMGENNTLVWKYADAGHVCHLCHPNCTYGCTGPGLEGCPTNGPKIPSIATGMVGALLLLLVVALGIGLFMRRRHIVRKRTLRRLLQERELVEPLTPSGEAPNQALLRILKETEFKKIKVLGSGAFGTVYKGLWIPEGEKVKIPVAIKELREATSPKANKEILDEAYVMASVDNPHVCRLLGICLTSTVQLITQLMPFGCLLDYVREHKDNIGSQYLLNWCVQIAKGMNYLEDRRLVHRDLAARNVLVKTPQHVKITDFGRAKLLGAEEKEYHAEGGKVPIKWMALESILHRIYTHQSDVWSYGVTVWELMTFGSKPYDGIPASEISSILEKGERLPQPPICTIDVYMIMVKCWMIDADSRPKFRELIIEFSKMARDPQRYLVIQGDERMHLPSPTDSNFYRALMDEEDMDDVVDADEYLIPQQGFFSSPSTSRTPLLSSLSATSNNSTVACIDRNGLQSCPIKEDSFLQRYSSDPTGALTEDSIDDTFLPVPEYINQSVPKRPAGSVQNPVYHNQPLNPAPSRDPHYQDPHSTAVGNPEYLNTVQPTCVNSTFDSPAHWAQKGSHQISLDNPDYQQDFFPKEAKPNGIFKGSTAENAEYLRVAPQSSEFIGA

[7] = tested on: OVCAR-8; assay: NCI-60 anticancer screening (SRB); format: cell-based; details: Homo sapiens; OVCAR-8, ovarian cancer; one dose 10 μM; read-out: Growth Inhibition Percentage (GI %)
[8] = tested on: RPMI-8226; assay: NCI-60 anticancer screening (SRB); format: cell-based; details: Homo sapiens; RPMI-8226, leukemia; one dose 10 μM; read-out: Growth Inhibition Percentage (GI %)
[9] = tested on: UACC-257; assay: NCI-60 anticancer screening (SRB); format: cell-based; details: Homo sapiens; UACC-257, melanoma; one dose 10 μM; read-out: Growth Inhibition Percentage (GI %)
[10] = tested on: PC-3; assay: NCI-60 anticancer screening (SRB); format: cell-based; details: Homo sapiens; PC-3, prostate cancer; one dose 10 μM; read-out: Growth Inhibition Percentage (GI %)
[11] = tested on: NCI-H226; assay: NCI-60 anticancer screening (SRB); format: cell-based; details: Homo sapiens; NCI-H226, NSC lung cancer; one dose 10 μM; read-out: Growth Inhibition Percentage (GI %)
[12] = tested on: A549/ATCC; assay: NCI-60 anticancer screening (SRB); format: cell-based; details: Homo sapiens; A549/ATCC, NSC lung cancer; one dose 10 μM; read-out: Growth Inhibition Percentage (GI %)
[13] = tested on: CCRF-CEM; assay: NCI-60 anticancer screening (SRB); format: cell-based; details: Homo sapiens, leukemia, one dose 10 μM, read-out: Growth Inhibition Percentage (GI %)
[14] = tested on: SF-295; assay: NCI-60 anticancer screening (SRB); format: cell-based; details: Homo sapiens; SF-295, CNS cancer; one dose 10 μM; read-out: Growth Inhibition Percentage (GI %)
[15] = biological target: EGFR^WT (Homo sapiens, UniProt P00533); assay: EGFR kinase inhibitory assay (HTRF)
EGFR^WT, sequence (P00533 25-1210): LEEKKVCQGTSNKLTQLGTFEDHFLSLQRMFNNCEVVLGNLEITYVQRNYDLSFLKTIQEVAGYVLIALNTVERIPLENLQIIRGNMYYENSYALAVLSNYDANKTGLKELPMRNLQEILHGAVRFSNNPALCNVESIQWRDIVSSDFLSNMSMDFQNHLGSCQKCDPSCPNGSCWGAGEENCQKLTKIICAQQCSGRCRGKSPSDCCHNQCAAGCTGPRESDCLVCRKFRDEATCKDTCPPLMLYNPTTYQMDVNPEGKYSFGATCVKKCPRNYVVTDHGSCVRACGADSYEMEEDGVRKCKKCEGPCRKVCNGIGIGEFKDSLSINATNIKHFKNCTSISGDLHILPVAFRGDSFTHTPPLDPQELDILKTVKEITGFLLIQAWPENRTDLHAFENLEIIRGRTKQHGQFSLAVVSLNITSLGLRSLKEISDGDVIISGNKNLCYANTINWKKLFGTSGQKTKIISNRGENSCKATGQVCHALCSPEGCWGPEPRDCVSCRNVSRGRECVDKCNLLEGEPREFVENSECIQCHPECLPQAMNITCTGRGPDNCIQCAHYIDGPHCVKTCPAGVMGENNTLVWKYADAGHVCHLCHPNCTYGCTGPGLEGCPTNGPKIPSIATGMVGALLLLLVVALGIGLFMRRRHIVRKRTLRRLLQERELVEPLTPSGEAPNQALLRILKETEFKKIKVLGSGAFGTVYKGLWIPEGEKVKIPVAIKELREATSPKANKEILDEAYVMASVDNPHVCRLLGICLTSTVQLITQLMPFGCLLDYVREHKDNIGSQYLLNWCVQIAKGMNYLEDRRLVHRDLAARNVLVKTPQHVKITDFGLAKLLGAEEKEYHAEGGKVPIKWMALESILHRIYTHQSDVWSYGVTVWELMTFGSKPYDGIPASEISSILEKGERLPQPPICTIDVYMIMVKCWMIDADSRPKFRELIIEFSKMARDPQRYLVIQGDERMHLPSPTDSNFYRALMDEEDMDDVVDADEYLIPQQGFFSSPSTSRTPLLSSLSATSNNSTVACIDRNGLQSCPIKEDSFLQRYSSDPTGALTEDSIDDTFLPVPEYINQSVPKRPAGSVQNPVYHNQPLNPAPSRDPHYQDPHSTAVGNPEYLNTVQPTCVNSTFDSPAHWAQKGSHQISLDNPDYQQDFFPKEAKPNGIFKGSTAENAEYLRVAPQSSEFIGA

[16] = tested on: HCT-15; assay: NCI-60 anticancer screening (SRB); format: cell-based; details: Homo sapiens; HCT-15, colon cancer; one dose 10 μM; read-out: Growth Inhibition Percentage (GI %)
[17] = tested on: SNB-75; assay: NCI-60 anticancer screening (SRB); format: cell-based; details: Homo sapiens; SNB-75, CNS cancer; one dose 10 μM; read-out: Growth Inhibition Percentage (GI %)
[18] = tested on: SF-539; assay: NCI-60 anticancer screening (SRB); format: cell-based; details: Homo sapiens; SF-539, CNS cancer; one dose 10 μM; read-out: Growth Inhibition Percentage (GI %)
[19] = biological target: EGFR^T790M (Homo sapiens, UniProt P00533, T790M); assay: biochemical
EGFR^T790M, sequence (P00533 25-1210 T790M): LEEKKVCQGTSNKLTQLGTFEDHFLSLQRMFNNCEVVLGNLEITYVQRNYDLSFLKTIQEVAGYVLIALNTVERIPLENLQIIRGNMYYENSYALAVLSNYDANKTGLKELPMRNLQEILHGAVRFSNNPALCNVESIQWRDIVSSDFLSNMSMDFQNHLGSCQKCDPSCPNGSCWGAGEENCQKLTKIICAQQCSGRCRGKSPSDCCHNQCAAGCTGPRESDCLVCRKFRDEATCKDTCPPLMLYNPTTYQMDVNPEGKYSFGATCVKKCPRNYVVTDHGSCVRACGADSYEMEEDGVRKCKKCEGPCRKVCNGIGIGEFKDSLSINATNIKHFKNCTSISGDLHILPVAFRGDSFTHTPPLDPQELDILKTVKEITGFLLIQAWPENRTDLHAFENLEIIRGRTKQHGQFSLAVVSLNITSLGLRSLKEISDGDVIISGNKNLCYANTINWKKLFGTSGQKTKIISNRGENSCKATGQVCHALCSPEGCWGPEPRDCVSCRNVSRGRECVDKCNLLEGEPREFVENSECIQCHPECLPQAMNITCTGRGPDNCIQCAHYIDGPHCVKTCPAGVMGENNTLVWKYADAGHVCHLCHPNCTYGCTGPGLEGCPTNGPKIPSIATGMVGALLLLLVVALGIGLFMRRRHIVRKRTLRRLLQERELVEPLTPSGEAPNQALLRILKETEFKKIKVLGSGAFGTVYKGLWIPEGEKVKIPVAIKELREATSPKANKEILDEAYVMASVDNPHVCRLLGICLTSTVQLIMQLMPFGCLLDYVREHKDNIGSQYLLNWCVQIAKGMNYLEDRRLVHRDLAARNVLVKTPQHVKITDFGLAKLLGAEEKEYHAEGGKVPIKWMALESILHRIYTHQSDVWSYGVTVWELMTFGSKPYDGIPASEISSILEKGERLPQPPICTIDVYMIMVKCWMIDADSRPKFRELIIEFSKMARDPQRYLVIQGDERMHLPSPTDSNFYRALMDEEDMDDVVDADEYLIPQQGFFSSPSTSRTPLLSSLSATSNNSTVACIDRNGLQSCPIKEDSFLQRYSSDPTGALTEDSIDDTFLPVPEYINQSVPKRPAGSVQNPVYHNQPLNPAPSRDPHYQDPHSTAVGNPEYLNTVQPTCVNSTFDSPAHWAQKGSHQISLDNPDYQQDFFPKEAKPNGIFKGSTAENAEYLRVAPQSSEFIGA

[20] = tested on: MDA-MB-468; assay: NCI-60 anticancer screening (SRB); format: cell-based; details: Homo sapiens; MDA-MB-468, breast cancer; one dose 10 μM; read-out: Growth Inhibition Percentage (GI %)
[21] = tested on: MDA-MB-435; assay: NCI-60 anticancer screening (SRB); format: cell-based; details: Homo sapiens; MDA-MB-435, melanoma; one dose 10 μM; read-out: Growth Inhibition Percentage (GI %)
[22] = tested on: SR; assay: NCI-60 anticancer screening (SRB); format: cell-based; details: Homo sapiens, leukemia, one dose 10 μM, read-out: Growth Inhibition Percentage (GI %)
[23] = tested on: U251; assay: NCI-60 anticancer screening (SRB); format: cell-based; details: Homo sapiens, U-251; U251, CNS cancer; one dose 10 μM; read-out: Growth Inhibition Percentage (GI %)
[24] = tested on: IGROV1; assay: NCI-60 anticancer screening (SRB); format: cell-based; details: Homo sapiens, IGROV-1; IGROV1, ovarian cancer; one dose 10 μM; read-out: Growth Inhibition Percentage (GI %)
[25] = tested on: SF-268; assay: NCI-60 anticancer screening (SRB); format: cell-based; details: Homo sapiens; SF-268, CNS cancer; one dose 10 μM; read-out: Growth Inhibition Percentage (GI %)
[26] = tested on: SK-MEL-28; assay: NCI-60 anticancer screening (SRB); format: cell-based; details: Homo sapiens; SK-MEL-28, melanoma; one dose 10 μM; read-out: Growth Inhibition Percentage (GI %)
[27] = tested on: HOP-92; assay: NCI-60 anticancer screening (SRB); format: cell-based; details: Homo sapiens; HOP-92, NSC lung cancer; one dose 10 μM; read-out: Growth Inhibition Percentage (GI %)
[28] = tested on: MALME-3M; assay: NCI-60 anticancer screening (SRB); format: cell-based; details: Homo sapiens, melanoma, one dose 10 μM, read-out: Growth Inhibition Percentage (GI %)
[29] = tested on: SK-OV-3; assay: NCI-60 anticancer screening (SRB); format: cell-based; details: Homo sapiens; SK-OV-3, ovarian cancer; one dose 10 μM; read-out: Growth Inhibition Percentage (GI %)
[30] = tested on: SNB-19; assay: NCI-60 anticancer screening (SRB); format: cell-based; details: Homo sapiens; SNB-19, CNS cancer; one dose 10 μM; read-out: Growth Inhibition Percentage (GI %)
[31] = tested on: DU-145; assay: NCI-60 anticancer screening (SRB); format: cell-based; details: Homo sapiens; DU-145, prostate cancer; one dose 10 μM; read-out: Growth Inhibition Percentage (GI %)

Compound | inhibition at 10 µM [1] [%] | inhibition at 10 µM [2] [%] | inhibition at 10 µM [3] [%] | inhibition at 10 µM [4] [%] | inhibition at 10 µM [5] [%] | IC50 [6] [nM] | inhibition at 10 µM [7] [%] | inhibition at 10 µM [8] [%] | inhibition at 10 µM [9] [%] | inhibition at 10 µM [10] [%] | inhibition at 10 µM [11] [%] | inhibition at 10 µM [12] [%] | inhibition at 10 µM [13] [%] | inhibition at 10 µM [14] [%] | IC50 [15] [nM] | inhibition at 10 µM [16] [%] | inhibition at 10 µM [17] [%] | inhibition at 10 µM [18] [%] | IC50 [19] [nM] | inhibition at 10 µM [20] [%] | also measured
CCOC(=O)C1=C(N)N(c2ccc(Cl)cc2)C2=C(C(=O)CC(C)(C)C2)C1c1ccc(Cl)cc1Cl (racemic) [10d, (±)-Ethyl 2-amino-1–(4-chorophenyl)-4–(2,4-dichlorophenyl)-7,7-dimethyl-5-oxo-1-phenyl-1,4,5,6,7,8-hexahydroquinoline-3-carboxylate] | 50 | 17 | 71 | 79 | 66 | 51 ± 1 | 29 | 85 | 43 | 79 | 62 | 48 | 64 | 48 | 97 ± 5 | 65 | 11 | 21 | 280 ± 1 | 82 | inhibition at 10 µM [21]: 42%; inhibition at 10 µM [22]: 75%; inhibition at 10 µM [23]: 58%; inhibition at 10 µM [24]: 16%; inhibition at 10 µM [25]: 27%; inhibition at 10 µM [26]: 30%; inhibition at 10 µM [27]: 55%; inhibition at 10 µM [28]: 32%; inhibition at 10 µM [29]: 46%; inhibition at 10 µM [30]: 46%; inhibition at 10 µM [31]: 23%
CCOC(=O)C1=C(N)N(c2ccccc2)C2=C(C(=O)CC(C)(C)C2)C1c1cccc(Cl)c1Cl (racemic) [10a, (±)-Ethyl 2-amino-4–(2,3-dichlorophenyl)-7,7-dimethyl-5-oxo-1-phenyl-1,4,5,6,7,8-hexahydroquinoline-3-carboxylate] | 42 | 12 | 42 | 40 | 60 | 490 ± 3 | 41 | 49 | 15 | 65 | 60 | 39 | 45 | 46 | 145 ± 30 | 34 | 43 | 67 | 532 ± 4 | 52 | inhibition at 10 µM [21]: 13%; inhibition at 10 µM [22]: 44%; inhibition at 10 µM [23]: 45%; inhibition at 10 µM [24]: 16%; inhibition at 10 µM [25]: 34%; inhibition at 10 µM [26]: < 10%; inhibition at 10 µM [27]: 101%; inhibition at 10 µM [28]: 19%; inhibition at 10 µM [29]: 18%; inhibition at 10 µM [30]: 58%; inhibition at 10 µM [31]: 19%
CCOC(=O)C1=C(N)N(c2ccccc2)C2=C(C(=O)CC(C)(C)C2)C1c1ccccc1Br (racemic) [6d, (±)-Ethyl 2-amino-4–(2-bromophenyl)-7,7-dimethyl-5-oxo-1-phenyl-1,4,5,6,7,8-hexahydroquinoline-3-carboxylate] | 11 | < 10 | 11 | 20 | 21 | 250 ± 5 | < 10 | 35 | < 10 | 33 | 11 | 13 | 20 | < 10 | 99 ± 20 | 17 | 33 | < 10 | 410 ± 2 | 30 | inhibition at 10 µM [21]: < 10%; inhibition at 10 µM [22]: 14%; inhibition at 10 µM [23]: < 10%; inhibition at 10 µM [24]: < 10%; inhibition at 10 µM [25]: < 10%; inhibition at 10 µM [26]: < 10%; inhibition at 10 µM [27]: 27%; inhibition at 10 µM [28]: < 10%; inhibition at 10 µM [29]: < 10%; inhibition at 10 µM [30]: < 10%; inhibition at 10 µM [31]: < 10%

Reference: PMC10408569, “Recruitment of hexahydroquinoline as anticancer scaffold targeting inhibition of wild and mutants EGFR (EGFR^WT, EGFR^T790M, and EGFR^L858R)” (Journal of Enzyme Inhibition and Medicinal Chemistry, 2023)
